{"source": "patent US20120277298A1", "about": "“FLAVANONES-CONTAINING FOOD COMPOSITIONS” (NESTEC S.A., priority 2009, published 2012)", "assay": "Particle size distribution of hesperidin by laser diffraction (Malvern Mastersizer 2000)", "format": "physicochemical", "method": "The particle size distribution is observed using a microscopy optic LEICA DMR (mode Differential Interference Contrast and polarisation). The particle size distribution is measured by laser diffraction using a Malvern Mastersizer 2000.", "data": [{"smiles": "COc1ccc([C@@H]2CC(=O)c3c(O)cc(O[C@@H]4O[C@H](CO[C@@H]5O[C@@H](C)[C@H](O)[C@@H](O)[C@H]5O)[C@@H](O)[C@H](O)[C@H]4O)cc3O2)cc1O", "note": "[Commercially available hesperidin, hesperidin]", "values": [{"measurement": "% of cumulative distribution of hesperidin particle size below 20 microns", "setting": "0.1% hesperidin in water, Example 1", "value": 40, "unit": "%"}, {"measurement": "% of cumulative distribution < 20 microns of hesperidin in water", "setting": "hesperidin in water, Example 4", "value": "Average 40%"}]}]}
